Active and inactive are the calls of the source. The calls are words filed in the database; no cut-off is given here.
Columns and labels:
Rotala indica [1] = assay: Pre-emergence herbicidal activity against Rotala indica assessed as bleaching of stem/leaf parts; assay type: functional, organism-based
Cyperus difformis [2] = assay: Pre-emergence herbicidal activity against Cyperus difformis at 100 g a.i/ha measured after 14 days; assay type: functional, organism-based
Elatine triandra [3] = assay: Pre-emergence herbicidal activity against Elatine triandra assessed as bleaching of stem/leaf parts; assay type: functional, organism-based
Echinochloa oryzicola [4] = assay: Post-emergence herbicidal activity against Echinochloa oryzicola assessed as bleaching of stem/leaf parts; assay type: functional, organism-based
Pontederia vaginalis [5] = assay: Pre-emergence herbicidal activity against Monochoria vaginalis at 100 g a.i/ha measured after 14 days; assay type: functional, organism-based
Ammannia multiflora [6] = assay: Pre-emergence herbicidal activity against Ammannia multiflora assessed as bleaching of stem/leaf parts; assay type: functional, organism-based
[7] = tested on: Schoenoplectiella juncoides; assay: Post-emergence herbicidal activity against Schoenoplectiella juncoides assessed as bleaching of stem/leaf parts; assay type: functional, organism-based; further: test concentration or dose not given here
Echinochloa oryzicola [8] = assay: Pre-emergence herbicidal activity against Echinochloa oryzicola assessed as bleaching of stem/leaf parts; assay type: functional, organism-based
Pontederia vaginalis [9] = assay: Pre-emergence herbicidal activity against Monochoria vaginalis assessed as bleaching of stem/leaf parts; assay type: functional, organism-based
[10] = tested on: Schoenoplectiella juncoides; assay: Pre-emergence herbicidal activity against Schoenoplectiella juncoides at 100 g a.i/ha measured after 14 days; assay type: functional, organism-based
Oryza sativa [11] = assay: Phytotoxicity against Oryza sativa cv. Koshihikari (rice) at 100 g a.i/ha measured after 14 days; assay type: organism-based; conditions: in vivo, 336 h
Echinochloa oryzicola [12] = assay: Pre-emergence herbicidal activity against Echinochloa oryzicola at 100 g a.i/ha measured after 14 days; assay type: functional, organism-based
Lindernia procumbens [13] = assay: Pre-emergence herbicidal activity against Lindernia procumbens at 100 g a.i/ha measured after 14 days; assay type: functional, organism-based
Ammannia multiflora [14] = assay: Pre-emergence herbicidal activity against Ammannia multiflora at 100 g a.i/ha measured after 14 days; assay type: functional, organism-based
Ammannia multiflora [15] = assay: Post-emergence herbicidal activity against Ammannia multiflora assessed as bleaching of stem/leaf parts; assay type: functional, organism-based
Lindernia procumbens [16] = assay: Post-emergence herbicidal activity against Lindernia procumbens assessed as bleaching of stem/leaf parts; assay type: functional, organism-based; further: test concentration or dose not given here
Lindernia procumbens [17] = assay: Pre-emergence herbicidal activity against Lindernia procumbens assessed as bleaching of stem/leaf parts; assay type: functional, organism-based
Pontederia vaginalis [18] = assay: Post-emergence herbicidal activity against Monochoria vaginalis assessed as bleaching of stem/leaf parts; assay type: functional, organism-based
Cyperus difformis [19] = assay: Pre-emergence herbicidal activity against Cyperus difformis assessed as bleaching of stem/leaf parts; assay type: functional, organism-based
Elatine triandra [20] = assay: Pre-emergence herbicidal activity against Elatine triandra at 100 g a.i/ha measured after 14 days; assay type: functional, organism-based
Rotala indica [21] = assay: Post-emergence herbicidal activity against Rotala indica assessed as bleaching of stem/leaf parts; assay type: functional, organism-based
Rotala indica [22] = assay: Pre-emergence herbicidal activity against Rotala indica at 100 g a.i/ha measured after 14 days; assay type: functional, organism-based
Cyperus difformis [23] = assay: Post-emergence herbicidal activity against Cyperus difformis assessed as bleaching of stem/leaf parts; assay type: functional, organism-based; further: test concentration or dose not given here
[24] = tested on: Schoenoplectiella juncoides; assay: Pre-emergence herbicidal activity against Schoenoplectiella juncoides assessed as bleaching of stem/leaf parts; assay type: functional, organism-based
Elatine triandra [25] = assay: Post-emergence herbicidal activity against Elatine triandra assessed as bleaching of stem/leaf parts; assay type: functional, organism-based; further: test concentration or dose not given here
Lindernia procumbens [26] = assay: Pre-emergence herbicidal activity against Lindernia procumbens at 500 g a.i/ha measured after 14 days; assay type: functional, organism-based
Cyperus difformis [27] = assay: Pre-emergence herbicidal activity against Cyperus difformis at 500 g a.i/ha measured after 14 days; assay type: functional, organism-based
Oryza sativa [28] = assay: Phytotoxicity against Oryza sativa cv. Koshihikari (rice) at 500 g a.i/ha measured after 14 days; assay type: organism-based; conditions: in vivo, 336 h
Elatine triandra [29] = assay: Pre-emergence herbicidal activity against Elatine triandra at 500 g a.i/ha measured after 14 days; assay type: functional, organism-based
[30] = tested on: Schoenoplectiella juncoides; assay: Pre-emergence herbicidal activity against Schoenoplectiella juncoides at 500 g a.i/ha measured after 14 days; assay type: functional, organism-based
Echinochloa oryzicola [31] = assay: Pre-emergence herbicidal activity against Echinochloa oryzicola at 500 g a.i/ha measured after 14 days; assay type: functional, organism-based
Rotala indica [32] = assay: Pre-emergence herbicidal activity against Rotala indica at 500 g a.i/ha measured after 14 days; assay type: functional, organism-based
Ammannia multiflora [33] = assay: Pre-emergence herbicidal activity against Ammannia multiflora at 500 g a.i/ha measured after 14 days; assay type: functional, organism-based
Pontederia vaginalis [34] = assay: Pre-emergence herbicidal activity against Monochoria vaginalis at 500 g a.i/ha measured after 14 days; assay type: functional, organism-based

| SMILES | Activity (Rotala indica [1]) | Activity (Elatine triandra [3]) | Activity (Echinochloa oryzicola [4]) | Activity (Ammannia multiflora [6]) | Activity [7] | Activity (Echinochloa oryzicola [8]) | Activity (Pontederia vaginalis [9]) | Activity (Ammannia multiflora [15]) | Activity (Lindernia procumbens [16]) | Activity (Lindernia procumbens [17]) | Activity (Pontederia vaginalis [18]) | Activity (Cyperus difformis [19]) | Activity (Rotala indica [21]) | Activity (Cyperus difformis [23]) | Activity [24] | Activity (Elatine triandra [25]) | Activity (Lindernia procumbens [26]) | Activity (Cyperus difformis [27]) | Activity (Oryza sativa [28]) | Activity (Elatine triandra [29]) | other results |
| --- | --- | --- | --- | --- | --- | --- | --- | --- | --- | --- | --- | --- | --- | --- | --- | --- | --- | --- | --- | --- | --- |
| Cn1cc(C(=O)Nc2ccc(C(C)(C)C)cc2)c(Oc2cccc(C(F)(F)F)c2)n1 | Active | Active | Active | Active | Active | Active | Active | Active | Active | Active | Active | Active | Active | Active | Active | Active | – | – | – | – | Activity (Cyperus difformis [2]): inactive; Activity (Pontederia vaginalis [5]): inactive; Activity [10]: inactive; Activity (Oryza sativa [11]): Non-toxic; Activity (Echinochloa oryzicola [12]): inactive; Activity (Lindernia procumbens [13]): inactive; Activity (Ammannia multiflora [14]): inactive; Activity (Elatine triandra [20]): inactive; Activity (Rotala indica [22]): inactive |
| CCCONC(=O)c1cn(C)nc1Oc1cccc(C(F)(F)F)c1 | Active | Active | Active | Active | Active | Active | Active | Active | Active | Active | Active | Active | Active | Active | Active | Active | Active | Active | Toxic | Active | Activity (Pontederia vaginalis [5]): Active; Activity [10]: Active; Activity (Oryza sativa [11]): Non-toxic; Activity [30]: Active; Activity (Echinochloa oryzicola [12]): Active; Activity (Lindernia procumbens [13]): Active; Activity (Ammannia multiflora [14]): Active; Activity (Echinochloa oryzicola [31]): Active; Activity (Elatine triandra [20]): Active; Activity (Rotala indica [22]): Active; Activity (Rotala indica [32]): Active; Activity (Ammannia multiflora [33]): Active; Activity (Pontederia vaginalis [34]): Active |
| Cn1cc(C(=O)Nc2ccc(F)cc2F)c(Oc2cc(C(F)(F)F)ccn2)n1 | Active | Active | Active | Active | Active | Active | Active | Active | Active | Active | Active | Active | Active | Active | Active | Active | inactive | inactive | Non-toxic | inactive | Activity [30]: inactive; Activity (Echinochloa oryzicola [31]): inactive; Activity (Rotala indica [32]): inactive; Activity (Ammannia multiflora [33]): inactive; Activity (Pontederia vaginalis [34]): inactive |
| CSc1ccc(Oc2nn(C)cc2C(=O)Nc2ccc(F)cc2F)cc1C(F)(F)F | Active | Active | Active | Active | Active | Active | Active | Active | Active | Active | Active | Active | Active | Active | Active | Active | Active | Active | Non-toxic | Active | Activity [30]: inactive; Activity (Echinochloa oryzicola [31]): Active; Activity (Rotala indica [32]): Active; Activity (Ammannia multiflora [33]): Active; Activity (Pontederia vaginalis [34]): Active |
| CCCCNC(=O)c1cn(C)nc1Oc1cccc(C(F)(F)F)c1 | Active | Active | Active | Active | Active | Active | Active | Active | Active | Active | Active | Active | Active | Active | Active | Active | inactive | inactive | Non-toxic | inactive | Activity [30]: inactive; Activity (Echinochloa oryzicola [31]): inactive; Activity (Rotala indica [32]): inactive; Activity (Ammannia multiflora [33]): inactive; Activity (Pontederia vaginalis [34]): inactive |
| CCCN(CC)C(=O)c1cn(C)nc1Oc1cccc(C(F)(F)F)c1 | Active | Active | Active | Active | Active | Active | Active | Active | Active | Active | Active | Active | Active | Active | Active | Active | inactive | inactive | Non-toxic | inactive | Activity [30]: inactive; Activity (Echinochloa oryzicola [31]): inactive; Activity (Rotala indica [32]): inactive; Activity (Ammannia multiflora [33]): inactive; Activity (Pontederia vaginalis [34]): inactive |

— ChEMBL document CHEMBL3046607, “Synthesis and Herbicidal Activity of New 1-Alkyl-3-aryloxypyrazole-4-carboxamide Derivatives” (J Pestic Sci, 2004)
